Test results reported in paper PMC2676941 (The Journal of membrane biology, 2008).

Assays:
[1] = tested on: plasmodial surface anion channel (PSAC); format: cell-based, Plasmodium falciparum; settings: for concentration to inhibit proline transport versus hydroxyproline transport: data not shown
[2] = tested on: plasmodial surface anion channel (PSAC); settings: compared with sorbitol and alanine transport; ref Lisk et al. 2007; cited from earlier work

O=C1CN(/N=C/c2ccc(-c3ccc([N+](=O)[O-])cc3)o2)C(O)=N1 [Dantrolene]
concentration to inhibit proline transport versus hydroxyproline transport [1]: required higher concentrations

O=C(O)c1cc([N+](=O)[O-])ccc1NCCCc1ccccc1 [NPPB]
hydroxyproline uptake (osmotic lysis over 90 min) ([1]; 10 μM NPPB): abolished
proline-mediated lysis ([1]; 10 μM NPPB): slowed but not abolished
higher inhibitor concentration required to comparably reduce proline uptake ([1]; relative to the concentration that abolishes hydroxyproline uptake): 10 fold

COc1ccc(Cl)cc1C(=O)NCCc1ccc(S(=O)(=O)NC(=O)NC2CCCCC2)cc1 [glybenclamide]
concentration to inhibit proline transport versus hydroxyproline transport [1]: required higher concentrations

O=C(CCc1ccc(O)cc1)c1c(O)cc(O)cc1O[C@@H]1O[C@H](CO)[C@@H](O)[C@H](O)[C@H]1O [phloridzin]
inhibition of PhTMA-Cl and isoleucine transport [2]: less effectively inhibited
